In data set [1] the target is T1, MC1R (B16F10 melanoma cells) (Mus musculus, UniProt Q01727).
T1 construct: endogenous in cells; host or cells: B16F10 melanoma cells (Cell Resource Center for Biomedical Research, Tohoku University)
The data set is described as follows: Receptor binding assay: competitive inhibition of [^125I]I-Tyr^2-NDP-MSH bound to B16F10 melanoma cells. As to conditions: competition with [^125I]I-Tyr^2-NDP-MSH, 37 °C, 1 h, brackets = 95% confidence interval. As for the experimental part: B16F10 cells were obtained from the Cell Resource Center for Biomedical Research (Institute of Development, Aging and Cancer Tohoku University). B16F10 cells were cultivated in RPMI 1640 medium (Nacalai Tesque) supplemented with 10% fetal bovine serum (Thermo Scientific) in a humidified atmosphere containing 5% carbon dioxide at 37 °C. B16F10 cells (5 × 10^5 cells/well) were seeded in a 24-well poly-D-lysine coated plate (Corning) overnight. After the growth medium was removed, a reaction buffer containing 4.8 mg/mL HEPES, 100 U/mL penicillin, 1 mg/mL streptomycin and 2 mg/mL bovine serum albumin was added. Approximately 30,000 counts per minute of [^125I]I-Tyr^2-NDP-MSH and 0.5 pM to 5 µM of the peptides (NpG-GGN1a–NpG-GGN4a and In-DOTA-GGNle-CycMSHhex) were added to each well. The reaction mixture was incubated at 37 °C for 1 h. After incubation, the binding medium was removed, and the cells were rinsed twice with ice-cold phosphate-buffered saline (PBS). The cells were harvested using 0.25% trypsin solution, and the radioactivity was determined using an auto-well gamma counter. Ki values were calculated using GraphPad Prism 8.4.3 (GraphPad Software).

Data set [2] is described as follows: Log D7.4 measurements (1-octanol / phosphate buffer). In kind it is physicochemical. The conditions noted are these: 1-octanol / 25 mM phosphate buffer pH 7.4; mean ± SD. As for the experimental part: This experiment was performed according to a previously reported procedure with slight modifications. In brief, an aliquot of radiolabeled GGNle-CycMSHhex analogs (50 kBq/5 µL) was mixed with equal amounts (1.5 mL) of 1-octanol and 25 mM phosphate buffer (pH 7.4). The mixture was vortexed for 1 min and then allowed to stand for 1 min. After repeating the procedure five times, the mixture was centrifuged at 1,500 g for 10 min. Aliquots of 0.5 mL were taken from each phase and their radioactivity was measured with an auto-well γ counter (Wizard 3, PerkinElmer). The partition coefficient was determined by calculating the ratio of counts per minute in the 1-octanol phase to that in the buffer phase and expressed as a common logarithm. The results represent the mean ± SD for each compound.

The nature of data set [3]: Biodistribution in tumor-bearing mice. The class given is in vivo. As to conditions: C57BL/6, mouse, iv, total radioactivity, 3 h after i.v. injection, Suppl. Table 1, mean ± SD, n = 4; for tissue uptake dose at 3 h: 7.4 kBq. As for the experimental part: The animal experiments were conducted according to a protocol reviewed and approved by the Chiba University Animal Care Committee (Permit No. 4–183). Five-week-old C57BL/6 mice were subcutaneously xenografted in their right hind legs by injecting B16F10 cells (1.0 × 10^6 cells) suspended in Matrigel (BD Biosciences). When the tumor diameter achieved approximately 10 mm, the mice were subjected to biodistribution studies. Groups of four mice were sacrificed at each postinjection time point. A solution of each radiohalogenated GGNle-CycMSHhex analog or [^111In]In-DOTA-GGNle-CycMSHhex (7.4 kBq/100 µL) was injected into the tumor-bearing mice via the tail vein, and the mice were sacrificed at 3 h postinjection. A solution of [^125I]NpG-GGN4b (7.4 kBq) or [^211At]NpG-GGN4c (40 or 100 kBq) was also injected, and the mice were sacrificed at […] postinjection. Injected radioactivity of [^211At]NpG-GGN4c was 40 kBq for 1 and 3 h postinjection groups and 100 kBq for 24 postinjection group. Blocking studies were performed by co-injection of NDP-MSH (10 µg per mouse) simultaneously with [^125I]NpG-GGN4b (7.4 kBq) or [^211At]NpG-GGN4c (40 kBq), and the mice were sacrificed at 3 h postinjection. The organs of interest were removed, weighed, and radioactivity was estimated using an auto-well gamma counter.

Read-outs that look alike come from different tables or passages of the source. Positions of bridges follow the written chain, without caps; N, C: chain ends. Non-standard residues stand in square brackets, D forms with d. Residues, ends and D or L forms follow the SMILES beside them. *: point of attachment. DOTA = O=C(O)CN1CCN(CC(=O)O)CCN(CC(=O)*)CCN(CC(=O)O)CC1; X1 = O=C(Cn1cc(COCC(CO)(CO)CI)nn1)*; Nle = CCCC[C@H](N)C(=O)O

T1 sequence (Q01727 whole entry): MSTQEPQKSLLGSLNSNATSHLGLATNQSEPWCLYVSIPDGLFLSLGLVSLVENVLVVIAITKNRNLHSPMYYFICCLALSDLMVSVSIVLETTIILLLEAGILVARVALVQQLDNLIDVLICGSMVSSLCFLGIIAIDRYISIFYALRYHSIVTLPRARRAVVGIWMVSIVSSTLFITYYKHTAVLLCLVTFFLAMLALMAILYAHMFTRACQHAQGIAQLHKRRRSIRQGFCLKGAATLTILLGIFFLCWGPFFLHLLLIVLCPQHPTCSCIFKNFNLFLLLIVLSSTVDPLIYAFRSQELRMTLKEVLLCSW

For `CCCC[C@H](NC(=O)CNC(=O)CNC(=O)Cn1cc(COCC(CO)(CO)CI)nn1)C(=O)N[C@H]1CC(=O)NCCCC[C@@H](C(N)=O)NC(=O)[C@H](Cc2c[nH]c3ccccc23)NC(=O)[C@H](CCCNC(=N)N)NC(=O)[C@@H](Cc2ccccc2)NC(=O)[C@H](Cc2c[nH]cn2)NC1=O` [NpG-GGN1a] (X1-GG[Nle]DH[dF]RWK-NH2; lactam 4-9), the Ki (commonly a dissociation constant, usually derived from enzyme kinetics or from competition with a known ligand) in data set [1] was 2.81 nM.
`CCCC[C@H](NC(=O)CNC(=O)CNC(=O)[C@@H](CCC(=O)O)NC(=O)Cn1cc(COCC(CO)(CO)CI)nn1)C(=O)N[C@H]1CC(=O)NCCCC[C@@H](C(N)=O)NC(=O)[C@H](Cc2c[nH]c3ccccc23)NC(=O)[C@H](CCCNC(=N)N)NC(=O)[C@@H](Cc2ccccc2)NC(=O)[C@H](Cc2c[nH]cn2)NC1=O` [NpG-GGN2a] (X1-[dE]GG[Nle]DH[dF]RWK-NH2; lactam 5-10) returned a Ki in data set [1] of 3.24 nM.
On the same count and under the same terms, next, `CCCC[C@H](NC(=O)CNC(=O)CNC(=O)[C@@H](CCC(=O)O)NC(=O)[C@@H](CCC(=O)O)NC(=O)Cn1cc(COCC(CO)(CO)CI)nn1)C(=O)N[C@H]1CC(=O)NCCCC[C@@H](C(N)=O)NC(=O)[C@H](Cc2c[nH]c3ccccc23)NC(=O)[C@H](CCCNC(=N)N)NC(=O)[C@@H](Cc2ccccc2)NC(=O)[C@H](Cc2c[nH]cn2)NC1=O` [NpG-GGN3a] (X1-[dE][dE]GG[Nle]DH[dF]RWK-NH2; lactam 6-11): 14.9 nM; `CCCC[C@H](NC(=O)CNC(=O)CNC(=O)[C@@H](CCCNC(=N)N)NC(=O)[C@@H](CCC(=O)O)NC(=O)Cn1cc(COCC(CO)(CO)CI)nn1)C(=O)N[C@H]1CC(=O)NCCCC[C@@H](C(N)=O)NC(=O)[C@H](Cc2c[nH]c3ccccc23)NC(=O)[C@H](CCCNC(=N)N)NC(=O)[C@@H](Cc2ccccc2)NC(=O)[C@H](Cc2c[nH]cn2)NC1=O` [NpG-GGN4a] (X1-[dE][dR]GG[Nle]DH[dF]RWK-NH2; lactam 6-11): 1.37 nM.
As to `CCCC[C@H](NC(=O)CNC(=O)CNC(=O)CN1CCN(CC(=O)O)CCN(CC(=O)O)CCN(CC(=O)O)CC1)C(=O)N[C@H]1CC(=O)NCCCC[C@@H](C(N)=O)NC(=O)[C@H](Cc2c[nH]c3ccccc23)NC(=O)[C@H](CCCNC(=N)N)NC(=O)[C@@H](Cc2ccccc2)NC(=O)[C@H](Cc2c[nH]cn2)NC1=O` [[^111In]In-DOTA-GGNle-CycMSHhex, metal not drawn] ({DOTA}-GG[Nle]DH[dF]RWK-NH2; lactam 4-9), the logD (as a rule, the decadic logarithm of the distribution of all forms, ionised or not, between an organic phase and buffer at a given pH) in data set [2] is -3.45 ± 0.17. In addition, the tissue uptake dose at 3 h was 0.6 ± 0.15 %ID in data set [3] (intestine, read-out: Biodistribution of radioactivity, Intestine); 0.2 ± 0.04 %ID in data set [3] (stomach, read-out: Biodistribution of radioactivity, Stomach); 0.01 %ID in data set [3] (thyroid, read-out: Biodistribution of radioactivity, Thyroid). Further, the tissue uptake (as a rule, the percentage of the injected dose found per gram of tissue) at 3 h in data set [3] (tumor, 7.4 kBq/100 µL) is 16.5 ± 1.89 %ID/g.

Values taken from article PMC12014842, “An ^211At-labeled alpha-melanocyte stimulating hormone peptide analog for targeted alpha therapy of metastatic melanoma” (European Journal of Nuclear Medicine and Molecular Imaging, 2025).
